Assay results reported in patent US9187490B2, “Dimeric IAP inhibitors” (TetraLogic Pharmaceuticals Corporation, priority 2005, dated 2015).

What follows are molecules tested against T1, XIAP-BIR3 (Homo sapiens, UniProt P98170) (assay: XIAP BIR-3 fluorescence polarization binding assay). Details: 5 nM AbuRPF-K(5-Fam)-NH2, 40 nM XIAP-BIR3, 15 min RT, pH 7.5; read-out: KD Range.
T1 construct: 40 nM of XIAP-BIR3 for 15 min at RT
Protocol: Following incubation, the polarization values (mP) were measured on a Victor^2V using a 485 nm excitation filter and a 520 nm emission filter. IC50 values were determined from the plot using nonlinear least-squares analysis using GraphPad Prism.

T1 sequence (P98170 241-356 limits assumed): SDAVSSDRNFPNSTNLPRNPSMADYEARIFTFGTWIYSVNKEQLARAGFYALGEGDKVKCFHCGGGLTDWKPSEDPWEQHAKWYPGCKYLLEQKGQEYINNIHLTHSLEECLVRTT

Kd [nM] | Molecule
< 100 | CNC(C)C(=O)NC1CC=CCC(NC(=O)C(C)NC)C(=O)N2CCCC2Cc2c3n(c4cc(F)ccc24)CCn2c-3c(c3ccc(F)cc32)CC2CCCN2C1=O (stereo not drawn) [Entry 95]
< 100 | CN[C@@H](C)C(=O)NC1CCCC[C@H](NC(=O)[C@H](C)NC)C(=O)N2CCC[C@H]2Cc2c3n(c4ccc(F)cc24)CCn2c-3c(c3cc(F)ccc32)C[C@@H]2CCCN2C1=O (stereo partly drawn) [Entry 97]
< 100 | CN[C@@H](C)C(=O)N[C@H](C(=O)N1CCC[C@H]1Cc1cn(CC#CC#CCn2cc(C[C@@H]3CCCN3C(=O)[C@@H](NC(=O)[C@H](C)NC)C(C)(C)C)c3ccccc32)c2ccccc12)C(C)(C)C [Entry 119]
< 100 | CN[C@@H](C)C(=O)N[C@H](C(=O)N1CCC[C@H]1Cc1cn(CC#CC#CCn2cc(C[C@@H]3CCCN3C(=O)[C@@H](NC(=O)[C@H](C)NC)C3CCCCC3)c3ccccc32)c2ccccc12)C1CCCCC1 [Entry 120]
< 100 | CN[C@@H](C)C(=O)N[C@H](C(=O)N1CCC[C@H]1Cc1cn(CC#CC#CCn2cc(C[C@@H]3CCCN3C(=O)[C@@H](NC(=O)[C@H](C)NC)C(C)C)c3ccccc32)c2ccccc12)C(C)C [Entry 121]

Same assay, conditions: Example 4 series; read-out: KD Range

Kd [nM] | Molecule
< 100 | CNC(C)C(=O)NC(C(=O)N1CCCC1Cc1c(-c2[nH]c3cc(F)ccc3c2CC2CCCN2C(=O)C(NC(=O)C(C)NC)C(C)O)[nH]c2cc(F)ccc12)C(C)O (stereo not drawn) [Entry 78]
< 100 | CC[C@H](NC(=O)[C@H](C)NC)C(=O)N1CCC[C@H]1Cc1c(-c2[nH]c3cc(F)ccc3c2C[C@@H]2CCCN2C(=O)[C@H](CC)NC(=O)[C@H](C)NC)[nH]c2cc(F)ccc12 [Entry 79]
< 100 | CNC(C)C(=O)NC(C(=O)N1CCCC1Cc1c(-c2[nH]c3ccc(F)cc3c2CC2CCCN2C(=O)C(NC(=O)C(C)NC)C(C)O)[nH]c2ccc(F)cc12)C(C)O (stereo not drawn) [Entry 80]
100 to 1000 | CC(C)[C@H](NC(=O)CN)C(=O)N1CCC[C@H]1Cc1c(-c2[nH]c3cc(F)ccc3c2C[C@@H]2CCCN2C(=O)[C@@H](NC(=O)CN)C(C)C)[nH]c2cc(F)ccc12 [Entry 81]
< 100 | CCC(C)[C@H](NC(=O)[C@H](C)NC)C(=O)N1CCC[C@H]1Cc1c(-c2[nH]c3ccc(F)cc3c2C[C@@H]2CCCN2C(=O)[C@@H](NC(=O)[C@H](C)NC)C(C)CC)[nH]c2ccc(F)cc12 (stereo partly drawn) [Entry 82]
< 100 | CN[C@@H](C)C(=O)N[C@H](C(=O)N1CCC[C@H]1Cc1c(-c2[nH]c3ccc(F)cc3c2C[C@@H]2CCCN2C(=O)[C@@H](NC(=O)[C@H](C)NC)C2CCCCC2)[nH]c2ccc(F)cc12)C1CCCCC1 [Entry 83]
< 100 | CN[C@@H](C)C(=O)N[C@H](C(=O)N1CCC[C@H]1Cc1c(-c2[nH]c3cc(F)ccc3c2C[C@@H]2CCCN2C(=O)[C@@H](NC(=O)[C@H](C)NC)C(C)(C)C)[nH]c2cc(F)ccc12)C(C)(C)C [Entry 84]
< 100 | CN[C@@H](C)C(=O)N[C@H](C(=O)N1CCC[C@H]1Cc1c(-c2[nH]c3cc(F)ccc3c2C[C@@H]2CCCN2C(=O)[C@@H](NC(=O)[C@H](C)NC)C2CCCCC2)[nH]c2cc(F)ccc12)C1CCCCC1 [Entry 85]
< 100 | CNC(C)C(=O)NC(C(=O)N1CC(O)CC1Cc1c(-c2[nH]c3cc(F)ccc3c2CC2CC(O)CN2C(=O)C(NC(=O)C(C)NC)C(C)O)[nH]c2cc(F)ccc12)C(C)O (stereo not drawn) [Entry 86]
< 100 | CN[C@@H](C)C(=O)N[C@H](C(=O)N1C[C@@H](O)C[C@H]1Cc1c(-c2[nH]c3cc(F)ccc3c2C[C@@H]2C[C@H](O)CN2C(=O)[C@@H](NC(=O)[C@H](C)NC)C(C)C)[nH]c2cc(F)ccc12)C(C)C [Entry 87]
< 100 | CNC(C)C(=O)NC(C(=O)N1CC(O)CC1Cc1c(-c2[nH]c3cc(F)ccc3c2CC2CC(O)CN2C(=O)C(NC(=O)C(C)NC)C(C)OC)[nH]c2cc(F)ccc12)C(C)OC (stereo not drawn) [Entry 88]
100 to 1000 | CNC(C)C(=O)NC(C(=O)N1CC(O)CC1Cc1c(-c2[nH]c3cc(F)ccc3c2CC2CC(O)CN2C(=O)C(NC(=O)C(C)NC)C(C)OC(C)(C)C)[nH]c2cc(F)ccc12)C(C)OC(C)(C)C (stereo not drawn) [Entry 89]
< 100 | CNC(C)C(=O)NC(C(=O)N1CC(O)CC1Cc1c(-c2[nH]c3cc(F)ccc3c2CC2CC(O)CN2C(=O)C(NC(=O)C(C)NC)C(C)O)[nH]c2cc(F)ccc12)C(C)O (stereo not drawn) [Entry 90]
100 to 1000 | CN[C@H](C)C(=O)N[C@H](C(=O)N1CCC[C@H]1Cc1c(-c2[nH]c3cc(F)ccc3c2C[C@@H]2CCCN2C(=O)[C@@H](NC(=O)[C@@H](C)NC)C(C)C)[nH]c2cc(F)ccc12)C(C)C [Entry 91]

Same assay, conditions: Example 7 series; read-out: KD Range

Kd [nM] | Molecule
< 100 | CN[C@@H](C)C(=O)N[C@H](C(=O)N1CCC[C@H]1Cc1c(-c2[nH]c3ccccc3c2C[C@@H]2CCCN2C(=O)[C@@H](NC(=O)[C@H](C)NC)[C@@H](C)O)[nH]c2ccccc12)[C@@H](C)O [Entry 105]
< 100 | CN[C@@H](C)C(=O)N[C@H](C(=O)N1C[C@@H](O)C[C@H]1Cc1c(-c2[nH]c3cc(F)ccc3c2C[C@@H]2C[C@H](O)CN2C(=O)[C@@H](NC(=O)[C@H](C)NC)[C@H](C)OC(C)(C)C)[nH]c2cc(F)ccc12)[C@H](C)OC(C)(C)C [Entry 114]

Same assay, conditions: Example 9 series; read-out: KD Range

Kd [nM] | Molecule
< 100 | CN[C@@H](C)C(=O)N[C@H](C(=O)N1CCC[C@H]1Cc1cn(CCOCCn2cc(C[C@@H]3CCCN3C(=O)[C@@H](NC(=O)[C@H](C)NC)[C@@H](C)O)c3ccc(F)cc32)c2cc(F)ccc12)[C@@H](C)O [Entry 124]
100 to 1000 | CC[C@H](NC)C(=O)N[C@H](C(=O)N1CCC[C@H]1Cc1cn(CCOCCn2cc(C[C@@H]3CCCN3C(=O)[C@@H](NC(=O)[C@H](CC)NC)[C@@H](C)O)c3cc(F)ccc32)c2ccc(F)cc12)[C@@H](C)O [Entry 125]
< 100 | CN[C@@H](C)C(=O)N[C@H](C(=O)N1CCC[C@H]1Cc1cn(CCOCCn2cc(C[C@@H]3CCCN3C(=O)[C@@H](NC(=O)[C@H](C)NC)C3CCCCC3)c3cc(F)ccc32)c2ccc(F)cc12)C1CCCCC1 [Entry 126]
< 100 | CN[C@@H](C)C(=O)N[C@H](C(=O)N1CCC[C@H]1Cc1c(C)n(CCOCCn2c(C)c(C[C@@H]3CCCN3C(=O)[C@@H](NC(=O)[C@H](C)NC)C3CCCCC3)c3cc(F)ccc32)c2ccc(F)cc12)C1CCCCC1 [Entry 127]
< 100 | CN[C@@H](C)C(=O)N[C@H](C(=O)N1CCC[C@H]1Cc1cn(CCOCCn2cc(C[C@@H]3CCCN3C(=O)[C@@H](NC(=O)[C@H](C)N)C3CCCCC3)c3ccccc32)c2ccccc12)C1CCCCC1 [Entry 143]

What follows are molecules tested on MDA MB-231 cells (assay: Apoptosis induction, Annexin V/Propidium Iodide staining). Details: MDA MB-231, after 4 hours.
Format: cell-based
Protocol: To show the ability of Smac mimetics to induce apoptosis, Annexin V-fluorescein isothiocyanate staining was performed. […] Cells were then pelleted and resuspended in assay buffer (supplied by manufacturer). Annexin V and propidium iodide were added to the cell preparations and incubated for 1 hour in the dark at room temperature. Following the incubation additional buffer (200 μl) was then added to each tube, and the samples were analyzed immediately by flow cytometry. In the presence of Smac mimetics apoptosis was strongly promoted, as assessed by annexin/PI staining and analyzed by flow cytometry. The amplification in the number of apoptotic cells (Annexin V positive/propidium iodide negative—lower right quadrant) by IAP antagonists as compared to control was dose dependent and due to the induction of apoptosis and not via increasing the proportion of necrotic cells.

Molecule | apoptosis induced, agent alone | increase in apoptotic activity, combination of TRAIL with compound [fold]
CN[C@@H](C)C(=O)N[C@H](C(=O)N1CCC[C@H]1Cc1cn(CC#CC#CCn2cc(C[C@@H]3CCCN3C(=O)[C@@H](NC(=O)[C@H](C)NC)C(C)C)c3ccccc32)c2ccccc12)C(C)C [Entry 121] | failed to induce significant apoptosis | 4
TRAIL: tumor necrosis factor-related apoptosis-inducing ligand (TRAIL) (protein, UniProt P50591 1-281, looked up) Tumor necrosis factor ligand …: MAMMEVQGGPSLGQTCVLIVIFTVLLQSLCVAVTYVYFTNELKQMQDKYSKSGIACFLKEDDSYWDPNDEESMNSPCWQVKWQLRQLVRKMILRTSEETISTVQEKQQNISPLVRERGPQRVAAHITGTRGRSNTLSSPNSKNEKALGRKINSWESSRSGHSFLSNLHLRNGELVIHEKGFYYIYSQTYFRFQEEIKENTKNDKQMVQYIYKYTSYPDPILLMKSARNSCWSKDAEYGLYSIYQGGIFELKENDRIFVSVTNEHLIDMDHEASFFGAFLVG | little, if any | –

Same assay, conditions: MDA MB-231, without TRAIL

Molecule | apoptosis, compound alone
CN[C@@H](C)C(=O)N[C@H](C(=O)N1CCC[C@H]1Cc1cn(CC#CC#CCn2cc(C[C@@H]3CCCN3C(=O)[C@@H](NC(=O)[C@H](C)NC)C(C)C)c3ccccc32)c2ccccc12)C(C)C [Entry 121] | approximately 10 % of cell total
